Source: publication PMC10322725, “Assimilatory sulfate reduction in the marine methanogen Methanothermococcus thermolithotrophicus” (Nature Microbiology, 2023)
One block for each compound: values may come before it.

Assays:
MtPAPP [1] = molecular target: T1, MtPAPP (Methanothermococcus thermolithotrophicus, UniProt A0AA82WPC3); assay: X-ray crystallography, […] Å; format: binding; details: co-crystallized with 2 mM PAP and MnCl2; partially occupied Mn2+ in active site
T1 construct: recombinant in E. coli, codon-optimized gene in pET-28a(+) NdeI/BamHI, HisTrap, tag cleaved if necessary; DHH domain 1-180, linker 181-210, DHHA1 211-315
T1 sequence (A0AA82WPC3 1-315): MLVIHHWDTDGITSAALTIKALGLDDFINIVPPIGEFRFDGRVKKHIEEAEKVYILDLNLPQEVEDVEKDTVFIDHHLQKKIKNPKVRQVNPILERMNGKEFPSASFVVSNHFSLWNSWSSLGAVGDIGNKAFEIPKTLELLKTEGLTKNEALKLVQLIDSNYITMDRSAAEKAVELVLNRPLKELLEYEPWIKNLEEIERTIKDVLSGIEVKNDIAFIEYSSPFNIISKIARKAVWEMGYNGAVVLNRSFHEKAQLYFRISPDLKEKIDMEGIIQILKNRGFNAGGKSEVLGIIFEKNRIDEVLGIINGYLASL

MtATPS = molecular target: T2, MtATPS (Methanothermococcus thermolithotrophicus, UniProt A0AA82WPC1); assay: coupled NADH oxidation assay with MtAPSK, pyrophosphatase, pyruvate kinase/lactate dehydrogenase; format: biochemical; details: 2.5 mM Na2SO4, 2 mM ATP, Mg2+, pH 7.0, 35 °C; pyrophosphatase rate-limiting
T2 construct: gene sat; recombinant in E. coli, codon-optimized gene in pET-28a(+) NdeI/BamHI, HisTrap, tag cleaved if necessary; homodimer; domains 1-156, 164-314, 320-382
T2 sequence (A0AA82WPC1 4-385): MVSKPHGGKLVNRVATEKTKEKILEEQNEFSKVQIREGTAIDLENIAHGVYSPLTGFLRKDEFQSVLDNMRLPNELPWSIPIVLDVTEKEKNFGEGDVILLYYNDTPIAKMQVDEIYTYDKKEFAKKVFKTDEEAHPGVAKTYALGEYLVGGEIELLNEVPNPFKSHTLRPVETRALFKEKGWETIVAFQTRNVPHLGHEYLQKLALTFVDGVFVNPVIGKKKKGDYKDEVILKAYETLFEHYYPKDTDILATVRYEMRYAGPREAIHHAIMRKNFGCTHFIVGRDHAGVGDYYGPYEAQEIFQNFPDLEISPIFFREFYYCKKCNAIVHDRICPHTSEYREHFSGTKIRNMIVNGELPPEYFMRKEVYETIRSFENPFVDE

MtAPSK = molecular target: T3, MtAPSK (Methanothermococcus thermolithotrophicus, UniProt A0AA82WPC2); assay: coupled NADH oxidation assay with MtATPS, pyrophosphatase, pyruvate kinase/lactate dehydrogenase; format: biochemical; details: APS generated in situ by MtATPS; 2 mM ATP, Mg2+, pH 7.0, 35 °C
T3 construct: gene cysC; recombinant in E. coli, codon-optimized gene in pET-28a(+) NdeI/BamHI, HisTrap, tag cleaved if necessary; homodimer

MtPAPSR [2] = molecular target: T4, MtPAPSR (Methanothermococcus thermolithotrophicus, UniProt A0AA82WPC4); assay: X-ray crystallography, […] Å; format: binding; details: bound in alpha subunit; crystal for phasing co-crystallized with 0.5 mM FAD
T4 construct: alpha and beta co-expressed in E. coli from pET-28a(+) NcoI/BamHI, C-terminal His-tag on alpha, anaerobic purification; alpha2beta2 heterotetramer; with Adenylylsulfate reductase subunit beta (PAPS reductase beta subunit)

MtPAPSR [3] = molecular target: T4, MtPAPSR; assay: coupled assay, oxidation of reduced methyl viologen at […] nm; format: biochemical; details: PAPS generated in situ by MtATPS and MtAPSK, PAP removed by MtPAPP; HEPES pH 7.0, Mn2+, Mg2+, 45 °C, anaerobic
MtPAPP [4] = molecular target: T1, MtPAPP; assay: malachite green phosphate assay; format: biochemical; details: 40 µM PAP, 50 µM MnCl2, Tris/HCl pH 7.64, 40 °C
[5] = molecular target: APS kinase from Methanothermococcus thermolithotrophicus (MtAPSK) (Methanothermococcus thermolithotrophicus); assay: crystal structure; MtAPSK co-crystallized with 2 mM MgCl2, apo state with bound phosphate, sitting drop, 18 °C, aerobic
[6] = molecular target: ATP sulfurylase from Methanothermococcus thermolithotrophicus (MtATPS) (Methanothermococcus thermolithotrophicus); assay: SEC; size exclusion chromatography of purified MtATPS; conditions in the supplement

T4 sequence (A0AA82WPC4 entry or part of it): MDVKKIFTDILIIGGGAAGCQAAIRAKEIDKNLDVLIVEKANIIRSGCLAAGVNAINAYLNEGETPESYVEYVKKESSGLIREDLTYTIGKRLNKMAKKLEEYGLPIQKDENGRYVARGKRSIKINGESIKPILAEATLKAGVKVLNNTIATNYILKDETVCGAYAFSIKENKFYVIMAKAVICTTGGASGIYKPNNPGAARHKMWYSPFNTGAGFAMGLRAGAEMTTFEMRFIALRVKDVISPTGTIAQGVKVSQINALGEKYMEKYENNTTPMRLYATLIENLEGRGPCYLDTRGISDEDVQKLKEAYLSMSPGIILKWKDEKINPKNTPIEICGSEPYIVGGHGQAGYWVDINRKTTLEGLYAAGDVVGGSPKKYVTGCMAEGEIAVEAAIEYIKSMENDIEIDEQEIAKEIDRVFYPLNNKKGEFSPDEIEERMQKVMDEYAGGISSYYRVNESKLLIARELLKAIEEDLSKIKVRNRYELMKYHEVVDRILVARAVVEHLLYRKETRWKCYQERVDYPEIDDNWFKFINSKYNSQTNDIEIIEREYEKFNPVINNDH
T4 sequence (A0AA82WPC5 entry or part of it, further chain): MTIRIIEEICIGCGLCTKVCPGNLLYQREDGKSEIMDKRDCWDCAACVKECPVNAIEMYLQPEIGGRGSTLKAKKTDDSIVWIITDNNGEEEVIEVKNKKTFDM
T3 sequence (A0AA82WPC2 entry or part of it): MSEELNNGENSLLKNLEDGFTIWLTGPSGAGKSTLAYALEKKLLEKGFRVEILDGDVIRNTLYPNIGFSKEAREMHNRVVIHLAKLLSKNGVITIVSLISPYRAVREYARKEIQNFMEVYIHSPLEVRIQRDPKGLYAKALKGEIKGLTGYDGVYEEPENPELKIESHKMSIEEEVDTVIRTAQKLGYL

Compound: Nc1ncnc2c1ncn2[C@@H]1O[C@H](COP(=O)(O)O)[C@@H](O)[C@H]1O [AMP]
X-ray crystallography, 3.1 Å (MtPAPP [1]): contained the product AMP and an ion in its active site

Compound: Nc1ncnc2c1ncn2[C@@H]1O[C@H](COP(=O)(O)OP(=O)(O)OP(=O)(O)O)[C@@H](O)[C@H]1O [ATP]
coupled NADH oxidation assay with MtAPSK, pyrophosphatase, pyruvate kinase/lacta (MtATPS): activity of the recombinantly expressed MtATPS and MtAPSK was tested via a coupled assay
coupled NADH oxidation assay with MtATPS, pyrophosphatase, pyruvate kinase/lacta (MtAPSK): determined by the production of ADP which was coupled to NADH oxidation

Compound: Cc1cc2nc3c(=O)[nH]c(=O)nc-3n(C[C@H](O)[C@H](O)[C@H](O)COP(=O)(O)OP(=O)(O)OC[C@H]3O[C@@H](n4cnc5c(N)ncnc54)[C@H](O)[C@@H]3O)c2cc1C [FAD]
X-ray crystallography, 1.45 Å (MtPAPSR [2]): the α subunit, containing the flavin adenine dinucleotide (FAD)

Compound: Nc1ncnc2c1ncn2[C@@H]1O[C@H](COP(=O)(O)OS(=O)(=O)O)[C@@H](OP(=O)(O)O)[C@H]1O [PAPS]
coupled assay, oxidation of reduced methyl viologen at 600 nm (MtPAPSR [3]): MtATPS, a pyrophosphatase and the MtAPSK were used to generate PAPS

Compound: Nc1ncnc2c1ncn2[C@@H]1O[C@H](COP(=O)(O)O)[C@@H](OP(=O)(O)O)[C@H]1O [PAP]
malachite green phosphate assay (MtPAPP [4]): produced inorganic phosphate (Pi) from PAP at fast rates

Compound: O=S(=O)(O)O [SO42−]
coupled NADH oxidation assay with MtAPSK, pyrophosphatase, pyruvate kinase/lacta (MtATPS): activity of the recombinantly expressed MtATPS and MtAPSK was tested via a coupled assay

stoichiometry N [5]: 2
Compound: APS kinase from Methanothermococcus thermolithotrophicus (MtAPSK) (enzyme)

stoichiometry N [6]: 2
Compound: ATP sulfurylase from Methanothermococcus thermolithotrophicus (MtATPS) (enzyme)
